Results: US10058622B2, “PH-sensitive peptides and their nanoparticles for drug delivery” (THE TRUSTEES OF THE UNIVERSITY OF PENNSYLVANIA, priority 2013, dated 2018)
Read-outs that look alike come from different tables or passages of the source. Each block holds one compound with its values, some of them ahead of it.

Experiments:
[1] = Solubility of peptides at pH 7.4 and 6.5 (Example 13); assay type: physicochemical
Text: Five pH sensitive peptides of the following sequences, […] (SEQ ID NO: 17), […] (SEQ ID NO: 18), […] (SEQ ID NO: 19), […] (SEQ ID NO: 20) and […] (SEQ ID NO: 8) were similarly synthesized by the method described in Example (1). Peptides […] (SEQ ID NO: 17) and […] (SEQ ID NO: 18) were soluble at both pH 7.4 and 6.5. Peptides […] (SEQ ID NO: 19) and […] (SEQ ID NO: 20) were insoluble at both pH 7.4 and 6.5, with […] (SEQ ID NO: 20) forming nanoparticles of about 80 nm. Peptide […] (SEQ ID NO: 8) was insoluble above about pH 6.7 forming nanoparticles of about 50 nm and soluble below about pH6.7; i.e., it undergoes a pH-induced transition at about pH6.7. Therefore, the pH ranges of the hydrophobic/hydrophilic transition and the corresponding soluble/insoluble transition of peptides and their nanoparticles may be adjusted by changing one or more features of the peptide, e.g., sequence and length, and the hydrophobic block and the functional block to which the peptide is conjugated.

[2] = cited from earlier work
[3] = Solubility of hydrophobic drugs in water versus concentration in nanoparticles; assay type: physicochemical; conditions: nanoparticles of Example 9 / Example 10
[4] = system: HCC1806 tumor (triple-negative breast cancer); assay: Tumor growth in HCC1806 tumor inoculated mice; assay type: in vivo; conditions: 100 mg LND/kg in tris-glycine buffer, intraperitoneal injection
[5] = Cytotoxicity by lactic dehydrogenase (LDH) assay; assay type: cell-based, human; conditions: human, SKOV3 cells, read-out: cell viability
Description: (§1) FIGS. 4A and 4B show lack of cytotoxicity of a pH sensitive peptide solution for SKOV3 cells.
(§2) Cytotoxicity, i.e., the effect of peptide on tumor cell viability, was determined using lactic dehydrogenase (LDH) assay. Cells (SKOV3 cells, a human carcinogenic cell line from ovarian cancer) were plated in 96-well plates (10,000 per well for SKOV3) and allowed to adhere overnight at 37° C. in a humidified atmosphere of 5% CO2. […] The medium was next removed, the LDH assay lysis solution was added, and the wells were kept at 37° C. for another 45 minutes. Finally, the LDH assay mixture was added and the wells were held at room temperature for still another 20-30 minutes before the absorbance was spectrophotometrically measured at a wavelength of 490 nm on a SpectraMax (Molecular Devices). […] This was confirmed by the spectrophotometric intensity of dead cells, shown in the lower panel, which was near zero, meaning it is indistinguishable from that of the control. Therefore, the peptide itself is non-toxic and biocompatible.

SKOV3 cells = assay: Cytotoxicity by lactic dehydrogenase (LDH) assay; assay type: cell-based, human; conditions: control set as zero
Description: as §1, §2

[6] = Solubility of peptide nanoparticles as a function of pH (Example 1, FIG. 1B); assay type: physicochemical; conditions: phosphate buffer solution
Text: A pH sensitive peptide (Ac-[…]-NH2) (SEQ ID NO: 9) was synthesized by the solid phase method. Amino acids blocked by the fluorinylmethyloxycarbonyl (FMOC) group were utilized to couple to a Rink amide resin. Piperideine, N-methylmorpholine (NMM), and hexafluorophosphate (HBTU) in dimethylformamide were used to remove the FMOC group and activate amino acids. The peptide was acetylated with acetic anhydride at the N-terminus and cleaved with trifluoroacetic acid/triisopropylsilane/water (95%/2.5%/2.5%). […] Such peptide spontaneously forms nanoparticles at pH 7.4. The solubility of nanoparticles was measured as a function of pH. […] Therefore, there is a sharp transition spanning over a pH interval of only 0.1. The increasing solubility at lower pH is believed to be due to the increasing protonation of the histidine group.

Compound: O=C(O)c1nn(Cc2ccc(Cl)cc2Cl)c2ccccc12 [LND, lonidamine]
solubility in water [2]: about 17 μg/ml | concentration of drug in pH-sensitive peptide nanoparticle preparation [3]: 1 mg/ml | duration of tumor growth delay effect compared to control [4]: about 10 days

Compound: Ac-HFFHGHFFHGHFFHGKK-NH2
viability at 3 h ([5]; pH 6.8, 3 hours with peptide then 24 hours): ~100% | viability at 3 h ([5]; pH 7.4, 3 hours with peptide then 24 hours): ~100% | spectrophotometric intensity of dead cells (LDH release) (SKOV3 cells): near zero | solubility of peptide and nanoparticle ([6]; above pH 7.2): completely insoluble | solubility of peptide and nanoparticle ([6]; at pH 7.0): mostly insoluble | solubility of peptide and nanoparticle ([6]; below pH 6.7): completely soluble | solubility of peptide and nanoparticle ([6]; below pH 6.9): mostly soluble | pH interval spanned by the sharp solubility transition [6]: 0.1 | pH of sudden fall indicating dissolution of peptide construct from nanoparticle ([6]; FIG. 1B): 6.9

Compound: Ac-GHFFHGHFFH-NH2
solubility of peptide ([1]; pH 6.5): soluble | solubility of peptide ([1]; pH 7.4): soluble

Compound: CC(=O)O[C@H]1C(=O)[C@@]2(C)[C@H]([C@H](OC(=O)c3ccccc3)[C@]3(O)C[C@H](OC(=O)[C@H](O)[C@@H](NC(=O)c4ccccc4)c4ccccc4)C(C)=C1C3(C)C)[C@]1(OC(C)=O)CO[C@@H]1C[C@@H]2O [paclitaxel]
solubility in water [2]: about 0.3 μg/ml | concentration of drug in pH-sensitive peptide nanoparticle preparation [3]: 1 mg/ml

The next lines start with the values.

solubility of peptide ([1]; pH 6.5): insoluble | solubility of peptide ([1]; pH 7.4): insoluble
Compound: Ac-GHFFHGFFFH-NH2

solubility of peptide ([1]; pH 6.5): insoluble | solubility of peptide ([1]; pH 7.4): insoluble
Compound: Ac-GFFFHGFFFH-NH2

solubility of peptide ([1]; pH 6.5): soluble | solubility of peptide ([1]; pH 7.4): soluble
Compound: Ac-KGGHFFHGHFFHGK-NH2
